Measurements as given in the supplement of paper PMC10627819.

Columns and labels:
S. aureus DSM 20231 [1] = assay: Bliss interaction score (quartile over a dose matrix) (fitness difference); higher = more antagonism (negative = synergy)
In short: (§1)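 Fitness is OD595 at stationary-phase entry relative to the plate's robust no-drug mean, capped at 1. Single-drug fitness was inferred from combinations. The Bliss score is observed minus product-expected fitness, summarised by quartiles over technical, biological and donor/recipient replicates.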

S. pneumoniae D39V = assay: as above
In short: as §1

B. subtilis 168 [2] = assay: as above
In short: as §1

S. aureus Newman [3] = assay: as above
In short: as §1

S. aureus DSM 20231 [4] = assay: fitness (endpoint OD595 vs no drug) (fraction); higher = more growth
In short: (§2)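 In 384-well plates at 37 °C, cultures began at OD595 0.01 in 30 µl, with 55 µl used for S. pneumoniae. OD595 readings every 30 min for 14 h were corrected by the first reading. Fitness divides the stationary-phase transition optical density by the robust mean of no-drug control wells. The result is capped at 1.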

B. subtilis 168 [5] = assay: as above
In short: as §2

S. aureus Newman [6] = assay: as above
In short: as §2
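Throughout, for Bliss interaction score (quartile over a dose matrix): first quartile when negative (synergy) and third quartile when positive (antagonism).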

CC[C@H]1OC(=O)[C@H](C)[C@@H](O[C@H]2C[C@@](C)(OC)[C@@H](O)[C@H](C)O2)[C@H](C)[C@@H](O[C@@H]2O[C@H](C)C[C@H](N(C)C)[C@H]2O)[C@](C)(O)C[C@@H](C)CN(C)[C@H](C)[C@@H](O)[C@]1(C)O [Azithromycin] + COc1ccc(C[C@H](N)C(=O)N[C@H]2[C@@H](O)[C@H](n3cnc4c(N(C)C)ncnc43)O[C@@H]2CO)cc1 [Puromycin]
Details	Bliss interaction score
B. subtilis 168 [2]	-0.0345
S. aureus DSM 20231 [1]	-0.0839
S. aureus Newman [3]	-0.0828
S. pneumoniae D39V	-0.0719

fitness
Details	partner 0.39 µg/mL	partner 0.78 µg/mL	partner 1.56 µg/mL
B. subtilis 168 [5], first compound 0.25 µg/mL	0.888	0.913	0.95
B. subtilis 168 [5], first compound 0.5 µg/mL	0.828	0.815	0.82
S. aureus DSM 20231 [4], first compound 0.125 µg/mL	0.849	0.863	0.923
S. aureus DSM 20231 [4], first compound 0.25 µg/mL	0.881	0.936	0.891
S. aureus Newman [6], first compound 0.125 µg/mL	0.915	0.905	0.945
S. aureus Newman [6], first compound 0.25 µg/mL	0.884	0.836	0.889
S. aureus Newman [6], first compound 0.5 µg/mL	0.559	–	0.524

fitness, S. aureus DSM 20231 [4], one replicate
Details	first compound 0.125 µg/mL	first compound 0.25 µg/mL	first compound 0.5 µg/mL
partner 3.12 µg/mL	≥ 1	0.915	0.293
partner 6.24 µg/mL	0.615	0.237	0.0525

CC[C@H]1OC(=O)[C@H](C)[C@@H](O[C@H]2C[C@@](C)(OC)[C@@H](O)[C@H](C)O2)[C@H](C)[C@@H](O[C@@H]2O[C@H](C)C[C@H](N(C)C)[C@H]2O)[C@](C)(O)C[C@@H](C)CN(C)[C@H](C)[C@@H](O)[C@]1(C)O [Azithromycin] + COc1cccc2c1C(=O)c1c(O)c3c(c(O)c1C2=O)C[C@@](O)(C(=O)CO)C[C@@H]3O[C@H]1C[C@H](N)[C@H](O)[C@H](C)O1 [Doxorubicin]
Details	Bliss interaction score
B. subtilis 168 [2]	0.164
S. aureus DSM 20231 [1]	0.115
S. aureus Newman [3]	0.0458
S. pneumoniae D39V	-0.0571

fitness
Details	partner 0.625 µg/mL	partner 1.25 µg/mL	partner 2.5 µg/mL
B. subtilis 168 [5], first compound 0.25 µg/mL	0.964	0.92	0.791
B. subtilis 168 [5], first compound 0.5 µg/mL	0.879	0.847	0.767
S. aureus DSM 20231 [4], first compound 0.125 µg/mL	0.811	0.794	0.781
S. aureus DSM 20231 [4], first compound 0.25 µg/mL	0.811	0.824	0.778
S. aureus DSM 20231 [4], first compound 0.5 µg/mL	0.62	0.672	0.569
S. aureus Newman [6], first compound 0.125 µg/mL	0.777	0.775	0.735
S. aureus Newman [6], first compound 0.25 µg/mL	0.827	0.779	0.77
S. aureus Newman [6], first compound 0.5 µg/mL	0.659	0.665	0.561

B. subtilis 168 [5], first compound 2 µg/mL, one replicate
Details	fitness
partner 0.625 µg/mL	0.358
partner 1.25 µg/mL	0.176
partner 2.5 µg/mL	0.0297

CC[C@H]1OC(=O)[C@H](C)[C@@H](O[C@H]2C[C@@](C)(OC)[C@@H](O)[C@H](C)O2)[C@H](C)[C@@H](O[C@@H]2O[C@H](C)C[C@H](N(C)C)[C@H]2O)[C@](C)(O)C[C@@H](C)CN(C)[C@H](C)[C@@H](O)[C@]1(C)O [Azithromycin] + C[C@@H]1O[C@@H]1P(=O)(O)O [Fosfomycin]
Details	Bliss interaction score
B. subtilis 168 [2]	0.0745
S. aureus DSM 20231 [1]	-0.0651
S. aureus Newman [3]	-0.12
S. pneumoniae D39V	0.0708

fitness
Details	partner 0.781 µg/mL	partner 1.562 µg/mL	partner 3.124 µg/mL	partner 6.248 µg/mL
B. subtilis 168 [5], first compound 0.25 µg/mL	–	0.713	0.61	0.445
B. subtilis 168 [5], first compound 0.5 µg/mL	–	0.622	0.582	0.442
S. aureus DSM 20231 [4], first compound 0.125 µg/mL	0.728	0.615	0.509	–
S. aureus DSM 20231 [4], first compound 0.25 µg/mL	0.68	0.625	0.554	–
S. aureus DSM 20231 [4], first compound 0.5 µg/mL	0.526	0.306	0.124	–
S. aureus Newman [6], first compound 0.125 µg/mL	0.622	0.525	0.18	–
S. aureus Newman [6], first compound 0.25 µg/mL	0.597	0.429	0.0915	–
S. aureus Newman [6], first compound 0.5 µg/mL	0.312	0.128	0.0235	–

B. subtilis 168 [5], first compound 2 µg/mL, one replicate
Details	fitness
partner 1.562 µg/mL	0.367
partner 3.124 µg/mL	0.176
partner 6.248 µg/mL	0.0795

CC[C@H]1OC(=O)[C@H](C)[C@@H](O[C@H]2C[C@@](C)(OC)[C@@H](O)[C@H](C)O2)[C@H](C)[C@@H](O[C@@H]2O[C@H](C)C[C@H](N(C)C)[C@H]2O)[C@](C)(O)C[C@@H](C)CN(C)[C@H](C)[C@@H](O)[C@]1(C)O [Azithromycin] + C[n+]1ccc(-c2cc[n+](C)cc2)cc1 [Paraquat]
Details	Bliss interaction score
B. subtilis 168 [2]	0.0865
S. aureus DSM 20231 [1]	-0.095
S. aureus Newman [3]	-0.0372
S. pneumoniae D39V	0.0486

fitness
Details	partner 1.25 µg/mL	partner 2.5 µg/mL	partner 5 µg/mL
B. subtilis 168 [5], first compound 0.25 µg/mL	0.947	0.919	0.884
B. subtilis 168 [5], first compound 0.5 µg/mL	0.906	0.866	0.759
S. aureus DSM 20231 [4], first compound 0.125 µg/mL	0.827	0.846	0.794
S. aureus DSM 20231 [4], first compound 0.25 µg/mL	0.814	0.75	0.823
S. aureus DSM 20231 [4], first compound 0.5 µg/mL	0.473	0.51	0.514
S. aureus Newman [6], first compound 0.125 µg/mL	0.924	0.904	0.853
S. aureus Newman [6], first compound 0.25 µg/mL	0.882	0.845	0.789
S. aureus Newman [6], first compound 0.5 µg/mL	0.55	0.575	0.496

CC[C@H]1OC(=O)[C@H](C)[C@@H](O[C@H]2C[C@@](C)(OC)[C@@H](O)[C@H](C)O2)[C@H](C)[C@@H](O[C@@H]2O[C@H](C)C[C@H](N(C)C)[C@H]2O)[C@](C)(O)C[C@@H](C)CN(C)[C@H](C)[C@@H](O)[C@]1(C)O [Azithromycin] + Cc1cc(NS(=O)(=O)c2ccc(N)cc2)no1 [Sulfamethoxazol]
Details	Bliss interaction score
B. subtilis 168 [2]	0.0534
S. aureus DSM 20231 [1]	-0.0683
S. aureus Newman [3]	-0.0991
S. pneumoniae D39V	0.071

fitness
Details	partner 1 µg/mL	partner 2 µg/mL	partner 4 µg/mL
B. subtilis 168 [5], first compound 0.25 µg/mL	0.901	0.89	0.895
B. subtilis 168 [5], first compound 0.5 µg/mL	0.871	0.834	0.849
S. aureus DSM 20231 [4], first compound 0.125 µg/mL	0.911	0.85	0.913
S. aureus DSM 20231 [4], first compound 0.25 µg/mL	0.85	0.839	0.869
S. aureus DSM 20231 [4], first compound 0.5 µg/mL	–	0.545	0.516
S. aureus Newman [6], first compound 0.125 µg/mL	0.849	0.88	0.86
S. aureus Newman [6], first compound 0.25 µg/mL	0.85	0.869	0.837

one replicate
Details	fitness
B. subtilis 168 [5], first compound 0.5 µg/mL, partner 0.5 µg/mL	0.899
B. subtilis 168 [5], first compound 1 µg/mL, partner 0.5 µg/mL	0.788
B. subtilis 168 [5], first compound 2 µg/mL, partner 0.5 µg/mL	0.029
B. subtilis 168 [5], first compound 2 µg/mL, partner 1 µg/mL	0.105
B. subtilis 168 [5], first compound 2 µg/mL, partner 2 µg/mL	0.126
S. aureus Newman [6], first compound 0.125 µg/mL, partner 8 µg/mL	0.895
S. aureus Newman [6], first compound 0.25 µg/mL, partner 8 µg/mL	0.873
S. aureus Newman [6], first compound 0.5 µg/mL, partner 8 µg/mL	0.893
